Measurements reported in PMC11843585, “A drug-resistant β-lactamase variant changes the conformation of its active-site proton shuttle to alter substrate specificity and inhibitor potency” (The Journal of Biological Chemistry, 2025).
Several values for one entry are separate records, joined by “and”; a condition that tells them apart may be missing. Equal entries are not always repeated. Entries after “also recorded” stand apart in the source; their conditions may differ.

Key:
[1] = target: T1, CTX-M-14 K234R β-lactamase (Escherichia coli, UniProt Q9L5C7, K237R); assay: Steady-state kinetics of β-lactam hydrolysis, K234R enzyme; format: biochemical; details: for Km / kcat: 25 °C, pH 7.0
T1 construct: His6 (TEV-cleavable) (N, cleaved yes); made in house; host or cells: E. coli BL21(DE3), pET28a-CTX-M-14 with K234R
Method: (§1) Michaelis–Menten steady-state kinetic parameters of CTX-M-14 β-lactamases were determined on various β-lactam substrates. Wavelength and extinction coefficients used for detection were as follows: ampicillin, 235 nm, Δε = 900 M^−1 cm^−1; cephalothin, 262 nm, Δε = 7,660 M^−1 cm^−1; cefotaxime, 264 nm, Δε = 7,250 M^−1 cm^−1; nitrocefin, 482 nm, Δε = 15,000 M^−1 cm^−1; cefpodoxime, 235 nm, Δε = 1,023 M^−1 cm^−1; ceftriaxone, 241 nm, Δε = 2,046 M^−1 cm^−1. Enzymatic reactions were performed at 25 °C in buffer containing 50 mM sodium phosphate (pH 7.0) and 1 μg/ml BSA. Substrate hydrolysis was monitored by Beckman Coulter spectrophotometer model DU 800 (Beckman Coulter, Brea, CA, USA). Initial hydrolysis velocities of substrate were plotted as a function of concentrations and fitted into a Michaelis–Menten equation using GraphPad Prism 5 (GraphPad Software, San Diego, CA, USA) to obtain Km and kcat values. The kcat/Km values for the enzymes where kcat and Km could not be determined independently were estimated using the equation, ν = (kcat/Km)[E][S], where [S] ≪ Km ([54]).

TEM-1 S130G β-lactamase = tested on: TEM-1 S130G β-lactamase; parameters: method as in PMID 15981999; details: cited from earlier work
[2] = target: T2, CTX-M-14 S130A β-lactamase (Escherichia coli, UniProt Q9L5C7, S133A); assay: Steady-state kinetics of β-lactam hydrolysis, S130A enzyme; format: biochemical; details: for Km / kcat: S130A; for fold decrease in kcat / fold increase in Km: S130A compared with WT
T2 construct: His6 (TEV-cleavable) (N, cleaved yes); made in house; host or cells: E. coli BL21(DE3)
Method: as §1

[3] = target: T3, CTX-M-14 S130A/K234R β-lactamase (Escherichia coli, UniProt Q9L5C7, K237R/S133A); assay: Steady-state kinetics of β-lactam hydrolysis, S130A/K234R enzyme; format: biochemical
T3 construct: His6 (TEV-cleavable) (N, cleaved yes); made in house; host or cells: E. coli BL21(DE3)
Method: as §1

[4] = target: T1, CTX-M-14 K234R β-lactamase; assay: Single-turnover stopped-flow kinetics, K234R enzyme; format: biochemical
Method: Single-turnover kinetics experiments were used to determine the acylation rate for the CTX-M-14 WT and K234R enzymes. Kinetic measurements were carried out at 25 °C using a using a KinTek stopped-flow instrument. Protein concentrations used in this experiment exceed the substrate concentrations. To prepare sample injection, 1 ml of increasing concentrations of CTX-M-14 proteins and 1 ml of 2.5–5 μM cefotaxime were loaded into two separate drive syringes. 5 μM cefotaxime was used for single-turnover experiments with WT CTX-M-14, whereas 2.5 μM cefotaxime was used in experiments with the K234R enzyme. Data collection times were adjusted empirically. Absorbance at 264 nm was monitored after samples in two syringes were mixed. For each selected time period, 1,000 data points were collected, and at least three kinetic traces were obtained to ensure high-quality data. […] The deacylation rate constant, k3, was calculated from the experimental values determined for kcat and k2, using the equation, kcat = k2 × k3/(k2 + k3). […] The error in the calculated value of k3 was determined by propagating the errors in k2 and kcat through the equation by adding the absolute errors for the sum (difference) in the denominator to obtain the absolute and the percentage error in kcat − k2. […]

PSE-4 β-lactamase = tested on: PSE-4 β-lactamase; parameters: method as in PMID 11148033, PMID 9756758; details: WT PSE-4; cited from earlier work
WT CTX-M-14 β-lactamase [5] = target: T4, WT CTX-M-14 β-lactamase (Escherichia coli, UniProt Q9L5C7); assay: Single-turnover stopped-flow kinetics, WT enzyme; format: biochemical
T4 construct: His6 (TEV-cleavable) (N, cleaved yes); made in house; host or cells: E. coli BL21(DE3), plasmid pET28a-CTX-M-14
Method: Single-turnover kinetics experiments were used to determine the acylation rate for the CTX-M-14 WT and K234R enzymes. Kinetic measurements were carried out at 25 °C using a using a KinTek stopped-flow instrument. Protein concentrations used in this experiment exceed the substrate concentrations. To prepare sample injection, 1 ml of increasing concentrations of CTX-M-14 proteins and 1 ml of 2.5–5 μM cefotaxime were loaded into two separate drive syringes. 5 μM cefotaxime was used for single-turnover experiments with WT CTX-M-14, whereas 2.5 μM cefotaxime was used in experiments with the K234R enzyme. Data collection times were adjusted empirically. Absorbance at 264 nm was monitored after samples in two syringes were mixed. For each selected time period, 1,000 data points were collected, and at least three kinetic traces were obtained to ensure high-quality data. Kinetic data with various protein concentrations were fitted to a single-exponential function, At=A^(−kt)+C , to determine kobs, which was then used to determine k2 by fitting kobs as a function of enzyme concentration to a hyperbola, as has been reported previously for serine β-lactamases and serine proteases ([33], [34], [35]). The deacylation rate constant, k3, was calculated from the experimental values determined for kcat and k2, using the equation, kcat = k2 × k3/(k2 + k3). Solving the equation for kcat in terms of k3 gives k3 = (k2 × kcat)/[…]. The error in the calculated value of k3 was determined by propagating the errors in k2 and kcat through the equation by adding the absolute errors for the sum (difference) in the denominator to obtain the absolute and the percentage error in kcat − k2. The percentage error of the numerator, (kcat × k2), was calculated by adding the percentage error for kcat and k2, and the final percentage and absolute errors on k3 were then obtained by adding the percentage error of the numerator and denominator to yield the percentage error in k3.

CTX-M β-lactamases = details: CTX-M versus TEM-1; cited from earlier work
TEM-1 β-lactamase K234T = tested on: TEM-1 β-lactamase K234T; parameters: method as in PMID 1910040; details: TEM-1 K234T versus TEM-1; cited from earlier work
[6] = target: T1, CTX-M-14 K234R β-lactamase; assay: Clavulanic acid inhibition (Ki, Morrison fit), K234R enzyme; format: biochemical; details: ampicillin as indicator substrate, 20 min preincubation
Method: (§2) The Ki values for clavulanic acid inhibition of CTX-M-14 WT and variants were determined by mixing the enzymes with increasing concentrations of clavulanic acid in buffer containing 50 mM sodium phosphate (pH 7.0) and 1 μg/ml BSA and incubating at room temperature for 20 min. Enzyme activity was evaluated by monitoring the initial velocity of hydrolysis of 100 μM ampicillin using Beckman Coulter spectrophotometer model DU 800. The percentage activity was calculated by dividing the initial hydrolysis velocity for ampicillin in the presence of clavulanic acid by the velocity in the absence of clavulanic acid and plotted as a function of clavulanic acid concentration. The Ki values were obtained by fitting the data into Morrison equation using GraphPad Prism 5 ([55]).

[7] = target: T3, CTX-M-14 S130A/K234R β-lactamase; assay: Clavulanic acid inhibition (Ki, Morrison fit), S130A/K234R enzyme; format: biochemical
Method: as §2

WT CTX-M-14 β-lactamase [8] = target: T4, WT CTX-M-14 β-lactamase; assay: Clavulanic acid inhibition (Ki, Morrison fit), WT enzyme; format: biochemical; details: ampicillin (100 μM) as indicator substrate, 20 min preincubation
Method: as §2

[9] = target: T2, CTX-M-14 S130A β-lactamase; assay: Clavulanic acid inhibition (Ki, Morrison fit), S130A enzyme; format: biochemical; details: ampicillin as indicator substrate, 20 min preincubation
Method: as §2

[10] = tested on: CC1(C)S[C@@H]2[C@H](NC(=O)[C@H](N)c3ccccc3)C(=O)N2[C@H]1C(=O)O; assay: Steady-state kinetics of β-lactam hydrolysis, WT enzyme; format: biochemical; details: other: WT CTX-M-14, 25 °C, pH 7.0
Method: as §1

[11] = tested on: CO/N=C(\C(=O)N[C@@H]1C(=O)N2C(C(=O)O)=C(COC(C)=O)CS[C@H]12)c1csc(N)n1; assay: as above; format: biochemical; details: other: WT CTX-M-14, 25 °C, pH 7.0
Method: as §1

WT CTX-M-14 β-lactamase [12] = target: T4, WT CTX-M-14 β-lactamase; assay: as above; format: biochemical
Method: as §1

CC1(C)S[C@@H]2[C@H](NC(=O)[C@H](N)c3ccccc3)C(=O)N2[C@H]1C(=O)O [Ampicillin, ampicillin]
change in kcat/Km (catalytic efficiency), in words ([1]; K234R compared with WT): unchanged; also recorded: only modestly changed
fold increase in Km ([1]; K234R compared with WT): 9 fold
fold increase in kcat ([1]; K234R compared with WT): 5 fold
fold increase in acylation rate ([1]; K234R compared with WT, inferred from kcat): at least 5 fold
Km ([1]; K234R): 1050 µM
kcat ([1]; K234R): 330 ± 33 s⁻¹
kcat ([1]; K234R, listed as ampicillin): 330 s⁻¹
k2 (acylation rate), lower limit based on kcat ([1]; K234R, inferred from kcat): ≥ 330 s⁻¹
k3 (deacylation rate), lower limit based on kcat ([1]; K234R, inferred from kcat): ≥ 330 s⁻¹
fold reduction in hydrolysis (TEM-1 S130G β-lactamase): 10 fold
Km [2]: 30000 µM
fold decrease in kcat [2]: 2 fold
fold increase in Km [2]: 260 fold
Km ([2]; 25 °C, pH 7.0): 30700 µM
kcat ([2]; 25 °C, pH 7.0): 30 ± 2 s⁻¹
Km ([3]; S130A/K234R, too high to measure): > 30000 µM

CO/N=C(\C(=O)N[C@@H]1C(=O)N2C(C(=O)O)=C(COC(C)=O)CS[C@H]12)c1csc(N)n1 [Cefotaxime, cefotaxime]
fold decrease in Km ([1]; K234R compared with WT): 6 fold
fold decrease in kcat ([1]; K234R compared with WT): 500 fold
fold decrease in kcat/Km ([1]; K234R compared with WT): 80 fold
Km ([1]; K234R): 11 ± 4 µM
kcat ([1]; K234R): 0.2 ± 0.01 s⁻¹
kcat ([1]; K234R, listed as cefotaxime): 0.2 s⁻¹
k3 (deacylation rate), lower limit based on kcat ([1]; K234R, inferred from kcat): ≥ 0.2 s⁻¹
Kd ([4]; fit of kobs from single turnover): 42 ± 8 µM
k2 (acylation rate) ([4]; single turnover, 2.5 μM cefotaxime, 25 °C): 0.14 s⁻¹ and 0.14 ± 0.01 s⁻¹
kcat, fold lower than for ampicillin hydrolysis (PSE-4 β-lactamase): ~2,000 fold
k3 (deacylation rate) (WT CTX-M-14 β-lactamase [5]; calculated from k2 and kcat): 190 s^−1 and 190 ± 35 ^b s^−1
Kd (WT CTX-M-14 β-lactamase [5]; fit of kobs from single turnover, read-out: KD (Ks, dissociation constant)): 74 ± 12 µM
k2 (acylation rate) (WT CTX-M-14 β-lactamase [5]; single turnover, 5 μM cefotaxime, 25 °C): 210 s⁻¹ and 210 ± 12 s⁻¹
fold decrease in kcat [2]: 1,000 fold
fold increase in Km [2]: 4 fold
Km ([2]; 25 °C, pH 7.0): 260 ± 13 µM
kcat ([2]; 25 °C, pH 7.0): 0.1 ± 0.003 s⁻¹
fold reduction in kcat ([3]; S130A/K234R compared with K234R): 400 fold
fold reduction in kcat ([3]; S130A/K234R compared with S130A): 200 fold
Km ([3]; S130A/K234R, 25 °C, pH 7.0): 120 ± 17 µM
kcat ([3]; S130A/K234R, 25 °C, pH 7.0): 0.0005 ± 0.0001 s⁻¹
hydrolysis, fold faster than TEM-1 (CTX-M β-lactamases): ~1,000 fold

CC1(C)S[C@@H]2[C@H](NC(=O)Cc3ccccc3)C(=O)N2[C@H]1C(=O)O [benzylpenicillin]
fold increase in Km (TEM-1 β-lactamase K234T): 50 fold
fold reduction in kcat (TEM-1 β-lactamase K234T): ~50 fold

CO/N=C(\C(=O)N[C@@H]1C(=O)N2C(C(=O)O)=C(CSc3nc(=O)c(=O)[nH]n3C)CS[C@H]12)c1csc(N)n1 [ceftriaxone]
fold decrease in Km ([1]; K234R compared with WT): 2 fold
fold decrease in kcat ([1]; K234R compared with WT): 400 fold
fold decrease in kcat/Km ([1]; K234R compared with WT): 170 fold

O=C(O)[C@H]1/C(=C/CO)O[C@@H]2CC(=O)N21 [Clav acid, Clavulanic acid]
Ki [6]: 0.39 ± 0.02 µM
Ki, fold above WT ([7]; S130A/K234R compared with WT): 3,500 fold
Ki ([7]; S130A/K234R, ampicillin as indicator substrate, 20 min preincubation): 270 ± 20 µM
Ki (WT CTX-M-14 β-lactamase [8]): 0.08 ± 0.001 µM
Ki [9]: 30 µM and 31 µM

WT CTX-M-14 β-lactamase (Escherichia coli)
Km [10]: 120 ± 10 µM
kcat [10]: 67 ± 3 s⁻¹
kcat/Km [10]: 560000 ± 20000 M⁻¹ s⁻¹
Km [11]: 66 ± 3 µM
kcat [11]: 100 ± 1 s⁻¹
kcat/Km [11]: 1.5e+06 ± 100000 M⁻¹ s⁻¹

CC(=O)OCC1=C(C(=O)O)N2C(=O)[C@@H](NC(=O)Cc3cccs3)[C@H]2SC1 [cephalothin]
fold decrease in Km ([1]; K234R compared with WT): 20 fold
fold decrease in kcat ([1]; K234R compared with WT): 100 fold
fold decrease in kcat/Km ([1]; K234R compared with WT): 6 fold
kcat, fold higher than for cefotaxime (WT CTX-M-14 β-lactamase [12]): ~7 fold
kcat/Km, fold higher than for cefotaxime (WT CTX-M-14 β-lactamase [12]): ~3 fold

COCC1=C(C(=O)O)N2C(=O)[C@@H](NC(=O)/C(=N\OC)c3csc(N)n3)[C@H]2SC1 [cefpodoxime]
fold decrease in Km ([1]; K234R compared with WT): 9 fold
fold decrease in kcat ([1]; K234R compared with WT): 430 fold
fold decrease in kcat/Km ([1]; K234R compared with WT): 50 fold

CO/N=C(\C(=O)N[C@@H]1C(=O)N2C(C(=O)O)=CCS[C@H]12)c1csc(N)n1 [ceftizoxime]
fold decrease in Km ([1]; K234R compared with WT): 8 fold
fold decrease in kcat ([1]; K234R compared with WT): 320 fold
fold decrease in kcat/Km ([1]; K234R compared with WT): 40 fold
Km, fold higher than for cefotaxime (WT CTX-M-14 β-lactamase [12]): 45 fold
kcat, fold higher than for cefotaxime (WT CTX-M-14 β-lactamase [12]): 2 fold
kcat/Km, fold lower than for cefotaxime (WT CTX-M-14 β-lactamase [12]): 20 fold
